The values below come from publication PMC11844072, “Novel 5,6-dichlorobenzimidazole derivatives as dual BRAFWT and BRAFV600E inhibitors: design, synthesis, anti-cancer activity and molecular dynamics simulations” (BMC Chemistry, 2025).

The term GI50 denotes the concentration that inhibits growth by half. A lower GI50 goes with more potent growth inhibition.

SMILES strings stand for the structures. Some results are limits rather than exact numbers.

Experiment in all cases: NCI 5-dose assay
Holding throughout (type): cell-based

One test concerns HCT-116. Particulars: Homo sapiens; HCT-116, Colon cancer. On the procedure:
(§1) The synthesized dichlorobenzimidazoles 10a–p were assayed for their influence on divers cancer cell lines according to the method presented in the Additional file A.
(§2) 5. Screening of cytotoxic activity against a panel of sixty human tumor cell lines
(§3) The selected compounds by NCI were evaluated for their anticancer activity in a two-stage process. First, these compounds were screened against the full NCI 60 cell lines panel at a single high dose of 10 µM. Then, the output from the single dose screen is reported as a mean graph. […]
(§4) at five different minimal concentrations.
(§5) Assay protocol. The human tumor cell lines of the cancer screening panel are grown in RPMI 1640 medium containing 5% fetal bovine serum and 2 mM L-glutamine. For a typical screening experiment, cells are inoculated into 96 well microtiter plates in 100 µL at plating densities ranging from 5000 to 40,000 cells/well depending on the doubling time of individual cell lines. After cell inoculation, the microtiter plates are incubated at 37 °C, 5% CO 2, 95% air and 100% relative humidity for 24 h prior to addition of the experimental drugs.
(§6) After 24 h, two plates of each cell line are fixed in situ with TCA, to represent a measurement of the cell population for each cell line at the time of drug addition (Tz). The experimental drugs are solubilized in dimethyl sulfoxide at 400-fold the desired final maximum test concentration and stored frozen prior to use. At the time of drug addition, an aliquot of frozen concentrate is thawed and diluted to twice the desired final maximum test concentration with complete medium containing 50 µg/mL gentamicin. Additional four, 10-fold or ½ log serial dilutions are made to provide a total of five drug concentrations plus control.
(§7) Aliquots of […] of these different drug dilutions are added to the appropriate microtiter wells already containing […] of medium, resulting in the required final drug concentrations.
(§8) Following drug addition, the plates are incubated for an additional 48 h at 37 °C, 5% CO 2, 95% air, and 100% relative humidity. For adherent cells, the assay is terminated by the addition of cold TCA.
(§9) Cells are fixed in situ by the gentle addition of 50 µL of cold 50% (w/v) TCA (final concentration, 10% TCA) and incubated for 60 min at 4 °C. The supernatant is discarded, and the plates are washed five times with tap water and air dried. Sulforhodamine B (SRB) solution ([…]) at 0.4% (w/v) in 1% acetic acid is added to each well, and plates are incubated for 10 min at room temperature. After staining, unbound dye is removed by washing five times with 1% acetic acid and the plates are air dried. Bound stain is subsequently solubilized with 10 mM trizma base, and the absorbance is read on an automated plate reader at a wavelength of 515 nm. For suspension cells, the methodology is […]
(§10) the same except that the assay is terminated by fixing settled cells at the bottom of the wells by gently adding 50 µl of 80% TCA (final concentration, 16% TCA). Using the seven absorbance measurements [time zero, (Tz), control growth, (C), and test growth in the presence of drug at the five concentration levels (Ti)], the percentage growth is calculated at each of the drug concentrations […]
(§11) Percentage growth inhibition is calculated as: [(Ti Tz)/(C–Tz)] x 100 for concentrations for which Ti>/=Tz and [(Ti-Tz)/Tz] x 100 for concentrations for which Ti < Tz.
(§12) Three dose response parameters are calculated for each experimental agent. Growth […]
(§13) concentration resulting in a 50% reduction in the net protein increase (as measured by SRB staining) in control cells during the drug incubation. The drug concentration resulting in total growth inhibition (TGI) is calculated from Ti = Tz. […]
(§14) reduction in the measured protein at the end of the drug treatment as compared to that at the beginning) indicating a net loss of cells following treatment is calculated from [(Ti–Tz)/Tz] x 100 =
(§15) _50. Values are calculated for each of these three parameters if the level of activity is reached; […]

For another test, the system named is TK-10. The following applies: Homo sapiens; TK-10, Renal cancer. On the procedure:
as §1, §2, §3, §4, §5, §6, §7, §8, §9, §10, §11, §12, §13, §14, §15

The subject of the next test is HCC-2998. The following applies: Homo sapiens; HCC-2998, Colon cancer. The protocol: as §1, §2, §3, §4, §5, §6, §7, §8, §9, §10, §11, §12, §13, §14, §15
For the next test, the system named is RPMI-8226. Particulars: Homo sapiens; RPMI-8226, Leukemia. On the procedure:
as §1, §2, §3, §4, §5, §6, §7, §8, §9, §10, §11, §12, §13, §14, §15

The next test deals with SF-268. The following applies: Homo sapiens; SF-268, CNS cancer. On the procedure: as §1, §2, §3, §4, §5, §6, §7, §8, §9, §10, §11, §12, §13, §14, §15
A further test concerns OVCAR-3. The following applies: Homo sapiens; OVCAR-3, Ovarian cancer. On the procedure:
as §1, §2, §3, §4, §5, §6, §7, §8, §9, §10, §11, §12, §13, §14, §15

For the next test, the system named is BT-549. Particulars: Homo sapiens; BT-549, Breast cancer. On the procedure:
as §1, §2, §3, §4, §5, §6, §7, §8, §9, §10, §11, §12, §13, §14, §15

The subject of another test is EKVX. The following applies: Homo sapiens, Non-small cell lung cancer. The protocol:
as §1, §2, §3, §4, §5, §6, §7, §8, §9, §10, §11, §12, §13, §14, §15

The test system of the next test is M14. The following applies: Homo sapiens; M14, Melanoma. On the procedure: as §1, §2, §3, §4, §5, §6, §7, §8, §9, §10, §11, §12, §13, §14, §15
A further test has as its system HOP-92. Particulars: Homo sapiens; HOP-92, Non-small cell lung cancer. On the procedure:
as §1, §2, §3, §4, §5, §6, §7, §8, §9, §10, §11, §12, §13, §14, §15

The subject of another test is SK-MEL-2. Particulars: Homo sapiens; SK-MEL-2, Melanoma. On the procedure:
as §1, §2, §3, §4, §5, §6, §7, §8, §9, §10, §11, §12, §13, §14, §15

The test system of the next test is UACC-257. Particulars: Homo sapiens; UACC-257, Melanoma. The protocol: as §1, §2, §3, §4, §5, §6, §7, §8, §9, §10, §11, §12, §13, §14, §15
A further test relates to KM12. The following applies: Homo sapiens; KM12, Colon cancer. On the procedure:
as §1, §2, §3, §4, §5, §6, §7, §8, §9, §10, §11, §12, §13, §14, §15

The subject of a further test is OVCAR-4. Particulars: Homo sapiens; OVCAR-4, Ovarian cancer. The protocol:
as §1, §2, §3, §4, §5, §6, §7, §8, §9, §10, §11, §12, §13, §14, §15

Another test concerns MDA-MB-435. The following applies: Homo sapiens; MDA-MB-435, Melanoma. The protocol:
as §1, §2, §3, §4, §5, §6, §7, §8, §9, §10, §11, §12, §13, §14, §15

In another test the test system is SR. The following applies: Homo sapiens, Leukemia. The protocol:
as §1, §2, §3, §4, §5, §6, §7, §8, §9, §10, §11, §12, §13, §14, §15

In the next test the test system is NCI-H460. The following applies: Homo sapiens; NCI-H460, Non-small cell lung cancer. The protocol:
as §1, §2, §3, §4, §5, §6, §7, §8, §9, §10, §11, §12, §13, §14, §15

A further test concerns MDA-MB-231/ATCC. The following applies: Homo sapiens, Breast cancer. On the procedure: as §1, §2, §3, §4, §5, §6, §7, §8, §9, §10, §11, §12, §13, §14, §15
The test system of another test is SNB-19. Particulars: Homo sapiens; SNB-19, CNS cancer. The protocol:
as §1, §2, §3, §4, §5, §6, §7, §8, §9, §10, §11, §12, §13, §14, §15

The subject of a further test is HL-60(TB). Particulars: Homo sapiens, Leukemia. The protocol:
as §1, §2, §3, §4, §5, §6, §7, §8, §9, §10, §11, §12, §13, §14, §15

The next test concerns UACC-62. Particulars: Homo sapiens; UACC-62, Melanoma. On the procedure:
as §1, §2, §3, §4, §5, §6, §7, §8, §9, §10, §11, §12, §13, §14, §15

The subject of a further test is OVCAR-5. The following applies: Homo sapiens; OVCAR-5, Ovarian cancer. On the procedure:
as §1, §2, §3, §4, §5, §6, §7, §8, §9, §10, §11, §12, §13, §14, §15

Another test concerns SF-295. Particulars: Homo sapiens; SF-295, CNS cancer. The protocol: as §1, §2, §3, §4, §5, §6, §7, §8, §9, §10, §11, §12, §13, §14, §15

In the case of `COC(=O)COc1ccc(C=NNC(=O)Cn2c(-c3ccc(OC)cc3)nc3cc(Cl)c(Cl)cc32)cc1` [Compound 10h, Methyl-2-(4-((2-(2-(5,6-dichloro-2-(4-methoxyphenyl)-1H-benzo[d]imidazol-1-yl)acetyl)hydrazono)methyl)phenoxy)acetate], the concentration for 50% growth inhibition (GI50) with HCT-116 was 68 µM; with TK-10, 13.2 µM; in the test on HCC-2998 it was 13.1 µM; in the test with RPMI-8226, 71.2 µM; in the test on SF-268 it was 10.1 µM; with OVCAR-3, 10.6 µM. For the same compound, the GI50 is 25.6 µM in the test on BT-549; 18.8 µM in the test on EKVX; 17.5 µM with M14; 11.4 µM with HOP-92; 10.5 µM in the test on SK-MEL-2; 12.7 µM in the test on UACC-257. For the same compound, the 50% growth inhibitory concentration (GI50) in the test on KM12 is more than 82.5 µM; with OVCAR-4, 17.2 µM; with MDA-MB-435, 14.8 µM; with SR it was 2.8 µM; in the test on NCI-H460, more than 82.5 µM; in the test with MDA-MB-231/ATCC, 6.66 µM. The 50% growth inhibitory concentration (GI50) was more than 82.5 µM in the test with SNB-19; more than 82.5 µM in the test with HL-60(TB); 10.1 µM in the test with UACC-62; 34.3 µM with OVCAR-5; more than 82.5 µM in the test on SF-295.

In the case of `COC(=O)COc1cc(C=NNC(=O)Cn2c(-c3ccc(OC)cc3)nc3cc(Cl)c(Cl)cc32)ccc1OC` [Compound 10o, Methyl-2-(5-((2-(2-(5,6-dichloro-2-(4-methoxyphenyl)-1H-benzo[d]imidazol-1-yl)acetyl)hydrazono)methyl)-2-methoxyphenoxy)acetate], the GI50 was more than 100 µM with HCT-116; 18.3 µM with TK-10; 13.4 µM in the test with HCC-2998; more than 100 µM in the test with RPMI-8226; more than 100 µM in the test on SF-268; more than 100 µM in the test on OVCAR-3. Further, the concentration for 50% growth inhibition (GI50) with BT-549 was more than 100 µM; with EKVX, 89.2 µM; with M14 it was more than 100 µM; in the test on HOP-92, 23.6 µM; in the test with SK-MEL-2 it was 21.6 µM; in the test with UACC-257 it was 38.7 µM. Moreover, the GI50 with KM12 is more than 100 µM; in the test on OVCAR-4 it was 20.5 µM; with MDA-MB-435, more than 100 µM; in the test with SR, 3 µM; in the test with NCI-H460, more than 100 µM; with MDA-MB-231/ATCC, 16.1 µM. For the same compound, the GI50 was more than 100 µM in the test with SNB-19; more than 100 µM in the test on HL-60(TB); 14.5 µM with UACC-62; more than 100 µM in the test on OVCAR-5; more than 100 µM with SF-295.

As for `COC(=O)COc1ccc(C=NNC(=O)Cn2c(-c3ccc(OC)cc3)nc3cc(Cl)c(Cl)cc32)cc1OC` [Compound 10p, Methyl-2-(4-((2-(2-(5,6-dichloro-2-(4-methoxyphenyl)-1H-benzo[d]imidazol-1-yl)acetyl)hydrazono)methyl)-2-methoxyphenoxy)acetate], the GI50 with HCT-116 was more than 72.5 µM; in the test on TK-10, 12.6 µM; with HCC-2998, 11.7 µM; in the test with RPMI-8226, more than 72.5 µM; in the test with SF-268, 32.4 µM; in the test on OVCAR-3, more than 72.5 µM. For the same compound, the concentration for 50% growth inhibition (GI50) in the test on BT-549 is more than 72.5 µM; with EKVX, 18.9 µM; with M14 it was more than 72.5 µM; with HOP-92 it was 12.5 µM; with SK-MEL-2 it was 10 µM; in the test on UACC-257 it was 14.7 µM. The GI50 with KM12 is more than 72.5 µM; in the test with OVCAR-4, 23 µM; in the test with MDA-MB-435, 22.9 µM; with SR, 2.15 µM; in the test with NCI-H460, 26.1 µM; with MDA-MB-231/ATCC, 13.8 µM. In addition, the 50% growth inhibitory concentration (GI50) is more than 72.5 µM in the test on SNB-19; more than 72.5 µM with HL-60(TB); 6.52 µM in the test on UACC-62; 24 µM in the test with OVCAR-5; more than 72.5 µM in the test with SF-295.
